Reference: patent US20240116985A1, “STAPLED PEPTIDES AND METHODS THEREOF” (priority 2020, published 2024)
pIC50: −log10 of the molar value.

Tests used:
[1] = target: T1, beta-catenin/TCF4 engagement (Homo sapiens, UniProt P35222); experiment: Nano-BRET target engagement assay (B-cat-Halo & TCF4-Luc in HEK293 cells); type: cell-based; settings: absolute IC50; read-out: NanoBRET Abs IC50
T1 construct: expressed in transfected cells; host or cells: HEK293
T1 sequence (P35222 1-781): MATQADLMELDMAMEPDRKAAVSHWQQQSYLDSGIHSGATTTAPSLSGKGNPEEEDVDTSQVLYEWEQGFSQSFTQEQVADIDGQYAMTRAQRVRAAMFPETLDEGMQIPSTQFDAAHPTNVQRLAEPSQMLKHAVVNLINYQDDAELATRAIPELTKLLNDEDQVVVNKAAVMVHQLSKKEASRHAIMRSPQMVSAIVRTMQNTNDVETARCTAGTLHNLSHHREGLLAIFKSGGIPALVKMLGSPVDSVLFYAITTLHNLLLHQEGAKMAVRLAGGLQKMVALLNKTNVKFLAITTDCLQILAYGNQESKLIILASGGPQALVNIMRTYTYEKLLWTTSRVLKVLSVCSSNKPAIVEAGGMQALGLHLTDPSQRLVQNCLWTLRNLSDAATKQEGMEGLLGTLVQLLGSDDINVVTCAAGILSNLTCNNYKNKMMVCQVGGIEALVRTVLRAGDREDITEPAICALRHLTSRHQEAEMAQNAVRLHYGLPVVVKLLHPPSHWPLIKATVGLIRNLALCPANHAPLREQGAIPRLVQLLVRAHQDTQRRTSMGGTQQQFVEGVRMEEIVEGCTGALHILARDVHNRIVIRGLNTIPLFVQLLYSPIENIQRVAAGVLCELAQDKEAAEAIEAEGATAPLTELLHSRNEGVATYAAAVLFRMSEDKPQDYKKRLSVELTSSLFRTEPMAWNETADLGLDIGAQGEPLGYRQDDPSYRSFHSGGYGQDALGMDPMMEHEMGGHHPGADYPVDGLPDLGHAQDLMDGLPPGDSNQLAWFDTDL

[2] = target: T2, full-length beta-Catenin (Uniprot ID P35222) (Homo sapiens, UniProt P35222); experiment: Fluorescence polarization IC50 (beta-catenin / 5FAM-TCF4 10-53 competition); type: binding; settings: fluorescence polarization; read-out: beta-Catenin FP IC50
T2 construct: 10 nM full-length beta-Catenin (Uniprot ID P35222)
T2 sequence (P35222 1-781): T1 sequence (P35222 1-781)

Compound	pIC50 [1]	pIC50 [2]
CC(=O)N1CCC[C@]12CC=CCCCC1(CCCC=CCCCOC(=O)N3CC[C@@](C(=O)N[C@@H](Cc4ccsc4)C(=O)N[C@@H](Cc4csc5ccccc45)C(=O)N[C@@H](CC(N)=O)C(=O)N[C@@H](C)C(=O)N[C@@H](CC(C)C)C(=O)N[C@@H](C)C(=O)N[C@@H](CC(C)C)C(=O)N[C@@H](C)C(=O)N[C@@H](CC(C)C)C(=O)N[C@@H](C)C(N)=O)(C3)NC(=O)[C@H](CC(C)C)NC(=O)[C@H](Cc3ccccc3)NC(=O)[C@H](C)NC(=O)[C@H](C)NC(=O)[C@H](Cc3cccc(C(=O)O)c3)NC(=O)[C@H](CC(=O)O)NC1=O)NC(=O)[C@H](CC(C)(C)C)NC(=O)[C@H](CC(=O)O)NC2=O (some centres unmarked) [I-2283]	5.35	5.54
CC(=O)N1CCC[C@]12CC=CCCCC1(CCCC=CCCCOC(=O)N3CC[C@@](C(=O)N[C@@H](Cc4ccsc4)C(=O)N[C@@H](Cc4csc5ccccc45)C(=O)N[C@@H](CC(N)=O)C(=O)N[C@@H](C)C(=O)N[C@@H](CC(C)C)C(=O)N[C@@H](C)C(=O)N[C@@H](CC(C)C)C(=O)N[C@@H](C)C(=O)N[C@@H](CC(C)C)C(=O)N[C@@H](C)C(N)=O)(C3)NC(=O)[C@H](CC(C)C)NC(=O)[C@H](Cc3ccccc3)NC(=O)[C@H](C)NC(=O)[C@H](C)NC(=O)[C@H](Cc3cccc(C(=O)O)c3)NC(=O)[C@H](CC(=O)O)NC1=O)NC(=O)[C@H](CC(C)(C)C)NC(=O)[C@H](CC(=O)O)NC2=O (some centres unmarked) [I-2284]	4.89	5.57
CC(=O)N1CCC[C@]12CC=CCCCC1(CCCC=CCCCOC(=O)N3CC[C@@](C(=O)N[C@@H](Cc4ccsc4)C(=O)N[C@@H](Cc4ccc(F)c(Br)c4)C(=O)N[C@@H](CCC(N)=O)C(N)=O)(C3)NC(=O)[C@H](CC(C)C)NC(=O)[C@H](Cc3ccccc3)NC(=O)[C@H](C)NC(=O)[C@H](C)NC(=O)[C@H](Cc3cccc(C(=O)O)c3)NC(=O)[C@H](CC(=O)O)NC1=O)NC(=O)[C@H](CC(C)(C)C)NC(=O)[C@H](CC(=O)O)NC2=O (stereo partly drawn) [I-2287, Ac-PL3-Asp-Npg-B5-Asp-3COOHF-Ala-Ala-Phe-Leu-PyrS2-3Thi-3Br4FF-Gln-NH2]	5.15	8.15
CC(=O)N1CCC[C@]12CC=CCCCC1(CCCC=CCCCOC(=O)N3CC[C@@](C(=O)N[C@@H](Cc4ccsc4)C(=O)N[C@@H](Cc4ccc(F)c(Br)c4)C(=O)N[C@@H](C)C(N)=O)(C3)NC(=O)[C@H](C(C)C)NC(=O)[C@H](Cc3ccccc3)NC(=O)[C@H](C)NC(=O)[C@H](CCC(N)=O)NC(=O)[C@H](Cc3cccc(C(=O)O)c3)NC(=O)[C@H](CC(=O)O)NC1=O)NC(=O)[C@H](CC(C)(C)C)NC(=O)[C@H](CC(=O)O)NC2=O (stereo partly drawn) [I-2288, Ac-PL3-Asp-Npg-B5-Asp-3COOHF-Gln-Ala-Phe-Val-PyrS2-3Thi-3Br4FF-Ala-NH2]	5.17	8.30
CC(=O)N1CCC[C@]12CC=CCCCC1(CCCC=CCCCOC(=O)N3CC[C@@](C(=O)N[C@@H](Cc4ccccc4C(F)(F)F)C(=O)N[C@@H](Cc4ccc(F)c(Br)c4)C(=O)N[C@@H](CO)C(N)=O)(C3)NC(=O)[C@H](CC(C)C)NC(=O)[C@H](Cc3ccccc3)NC(=O)[C@H](C)NC(=O)[C@H](C)NC(=O)[C@H](Cc3cccc(C(=O)O)c3)NC(=O)[C@H](CC(=O)O)NC1=O)NC(=O)[C@H](CC(C)(C)C)NC(=O)[C@H](CC(=O)O)NC2=O (stereo partly drawn) [I-2289, Ac-PL3-Asp-Npg-B5-Asp-3COOHF-Ala-Ala-Phe-Leu-PyrS2-2F3MeF-3Br4FF-Ser-NH2]	5.05	8.10
CC(=O)N1CCC[C@]12CC=CCCCC1(CCCC=CCCCOC(=O)N3CC[C@@](C(=O)N[C@@H](Cc4ccccc4C(F)(F)F)C(=O)N[C@@H](Cc4ccc(F)c(Br)c4)C(=O)N[C@@H](C)C(N)=O)(C3)NC(=O)[C@H](CC(C)C)NC(=O)[C@H](Cc3ccccc3)NC(=O)[C@H](C)NC(=O)[C@H](CCC(N)=O)NC(=O)[C@H](Cc3cccc(C(=O)O)c3)NC(=O)[C@H](CC(=O)O)NC1=O)NC(=O)[C@H](CC(C)(C)C)NC(=O)[C@H](CC(=O)O)NC2=O (stereo partly drawn) [I-2290, Ac-PL3-Asp-Npg-B5-Asp-3COOHF-Gln-Ala-Phe-Leu-PyrS2-2F3MeF-3Br4FF-Ala-NH2]	5.10	7.85
CC(=O)N1CCC[C@]12CC=CCCCC1(CCCC=CCCCOC(=O)N3CC[C@@](C(=O)N[C@@H](Cc4ccsc4)C(=O)N[C@@H](Cc4ccc(C)c(C)c4)C(=O)N[C@@H](CCC(N)=O)C(N)=O)(C3)NC(=O)[C@H](CC(C)C)NC(=O)[C@H](Cc3ccccc3)NC(=O)[C@H](C)NC(=O)[C@H](C)NC(=O)[C@H](Cc3cccc(C(=O)O)c3)NC(=O)[C@H](CC(=O)O)NC1=O)NC(=O)[C@H](CC(C)(C)C)NC(=O)[C@H](CC(=O)O)NC2=O (stereo partly drawn) [I-2291, Ac-PL3-Asp-Npg-B5-Asp-3COOHF-Ala-Ala-Phe-Leu-PyrS2-3Thi-34MeF-Gln-NH2]	5.31	8.30
CC(=O)N1CCC[C@]12CC=CCCCC1(CCCC=CCCCOC(=O)N3CC[C@@](C(=O)N[C@@H](Cc4ccsc4)C(=O)N[C@@H](Cc4ccc(C)c(C)c4)C(=O)N[C@@H](C)C(N)=O)(C3)NC(=O)[C@H](C(C)C)NC(=O)[C@H](Cc3ccccc3)NC(=O)[C@H](C)NC(=O)[C@H](CCC(N)=O)NC(=O)[C@H](Cc3cccc(C(=O)O)c3)NC(=O)[C@H](CC(=O)O)NC1=O)NC(=O)[C@H](CC(C)(C)C)NC(=O)[C@H](CC(=O)O)NC2=O (stereo partly drawn) [I-2292, Ac-PL3-Asp-Npg-B5-Asp-3COOHF-Gln-Ala-Phe-Val-PyrS2-3Thi-34MeF-Ala-NH2]	5.57	8.05

Results, then the compound that gave them:

pIC50 [1]	pIC50 [2]	Compound
5.24	7.82	CC(=O)N1CCC[C@]12CC=CCCCC1(CCCC=CCCCOC(=O)N3CC[C@@](C(=O)N[C@@H](Cc4ccccc4C(F)(F)F)C(=O)N[C@@H](Cc4ccc(C)c(C)c4)C(=O)N[C@@H](CO)C(N)=O)(C3)NC(=O)[C@H](CC(C)C)NC(=O)[C@H](Cc3ccccc3)NC(=O)[C@H](C)NC(=O)[C@H](C)NC(=O)[C@H](Cc3cccc(C(=O)O)c3)NC(=O)[C@H](CC(=O)O)NC1=O)NC(=O)[C@H](CC(C)(C)C)NC(=O)[C@H](CC(=O)O)NC2=O (stereo partly drawn) [I-2293, Ac-PL3-Asp-Npg-B5-Asp-3COOHF-Ala-Ala-Phe-Leu-PyrS2-2F3MeF-34MeF-Ser-NH2]
5.34	7.80	CC(=O)N1CCC[C@]12CC=CCCCC1(CCCC=CCCCOC(=O)N3CC[C@@](C(=O)N[C@@H](Cc4ccccc4C(F)(F)F)C(=O)N[C@@H](Cc4ccc(C)c(C)c4)C(=O)N[C@@H](C)C(N)=O)(C3)NC(=O)[C@H](CC(C)C)NC(=O)[C@H](Cc3ccccc3)NC(=O)[C@H](C)NC(=O)[C@H](CCC(N)=O)NC(=O)[C@H](Cc3cccc(C(=O)O)c3)NC(=O)[C@H](CC(=O)O)NC1=O)NC(=O)[C@H](CC(C)(C)C)NC(=O)[C@H](CC(=O)O)NC2=O (stereo partly drawn) [I-2294, Ac-PL3-Asp-Npg-B5-Asp-3COOHF-Gln-Ala-Phe-Leu-PyrS2-2F3MeF-34MeF-Ala-NH2]
5.48	8.30	CC(=O)N1CCC[C@]12CC=CCCCC1(CCCC=CCCCOC(=O)N3CC[C@@](C(=O)N[C@@H](Cc4ccsc4)C(=O)N[C@@H](Cc4ccc5c(c4)CCC5)C(=O)N[C@@H](CCC(N)=O)C(N)=O)(C3)NC(=O)[C@H](CC(C)C)NC(=O)[C@H](Cc3ccccc3)NC(=O)[C@H](C)NC(=O)[C@H](C)NC(=O)[C@H](Cc3cccc(C(=O)O)c3)NC(=O)[C@H](CC(=O)O)NC1=O)NC(=O)[C@H](CC(C)(C)C)NC(=O)[C@H](CC(=O)O)NC2=O (stereo partly drawn) [I-2295, Ac-PL3-Asp-Npg-B5-Asp-3COOHF-Ala-Ala-Phe-Leu-PyrS2-3Thi-5IndA-Gln-NH2]
5.29	8.22	CC(=O)N1CCC[C@]12CC=CCCCC1(CCCC=CCCCOC(=O)N3CC[C@@](C(=O)N[C@@H](Cc4ccsc4)C(=O)N[C@@H](Cc4ccc5c(c4)CCC5)C(=O)N[C@@H](C)C(N)=O)(C3)NC(=O)[C@H](C(C)C)NC(=O)[C@H](Cc3ccccc3)NC(=O)[C@H](C)NC(=O)[C@H](CCC(N)=O)NC(=O)[C@H](Cc3cccc(C(=O)O)c3)NC(=O)[C@H](CC(=O)O)NC1=O)NC(=O)[C@H](CC(C)(C)C)NC(=O)[C@H](CC(=O)O)NC2=O (stereo partly drawn) [I-2296, Ac-PL3-Asp-Npg-B5-Asp-3COOHF-Gln-Ala-Phe-Val-PyrS2-3Thi-5IndA-Ala-NH2]
5.26	7.17	CC(=O)N1CCC[C@]12CC=CCCCC1(CCCC=CCCCOC(=O)N3CC[C@@](C(=O)N[C@@H](Cc4ccccc4C(F)(F)F)C(=O)N[C@@H](Cc4ccc5c(c4)CCC5)C(=O)N[C@@H](CO)C(N)=O)(C3)NC(=O)[C@H](CC(C)C)NC(=O)[C@H](Cc3ccccc3)NC(=O)[C@H](C)NC(=O)[C@H](C)NC(=O)[C@H](Cc3cccc(C(=O)O)c3)NC(=O)[C@H](CC(=O)O)NC1=O)NC(=O)[C@H](CC(C)(C)C)NC(=O)[C@H](CC(=O)O)NC2=O (stereo partly drawn) [I-2297, Ac-PL3-Asp-Npg-B5-Asp-3COOHF-Ala-Ala-Phe-Leu-PyrS2-2F3MeF-5IndA-Ser-NH2]
